Reference: patent publication US9969766B2, “20(R)-ginsenoside Rg3 polyacylated derivatives, preparation and application thereof” (priority 2014, dated 2018)

Experiments:
[1] = cited from earlier work
mouse Lewis lung cancer [2] = assay: Mouse Lewis lung cancer, toe subcutaneous inoculation, anti-tumor test; details: 100 mg/kg/d, ip × 14qod
From the text: (§1) human breast cancer Bcap-37 model, human lung cancer A549 model, human intestinal cancer LOVO model, human stomach cancer MGC model and human liver cancer QGY model, with tumor cell lines being of the second generation or more, mouse B16 melanoma cell line, mouse Lewis lung cancer model, mouse sarcoma s180 model, all passaged and preserved in Pharmacological Division of Shanghai Institute of Pharmaceutical Industry. 3. Experiment Animals Origins: nude mice, 6-week old, 18-22 g/mouse, provided by Laboratory Animal Center of Chinese Academy of Sciences, Shanghai Branch, with certification No. 2001A032. C57BL/6 mice and Kunming mice, 18-22 g/mouse, provided by Laboratory Animal Center of Chinese Academy of Sciences, Shanghai Branch, with certification SYXK (Shanghai) 2004-0015. Gender: male or female, the same gender for each batch in experiment Animal numbers: 10 mice and 10 nude mice for each of positive control group and test group in experiment, and 20 for negative control group. 4. Experiment Design Dose Settings: doses for 20(R)-ginsenoside Rg3 octo-acetate, 20(R)-ginsenoside Rg3 octo-n-butyrate and 20(R)-ginsenoside Rg3 octo-n-propionate were set as high-dose group (0.3 mg/kg/d), medium-dose group (0.06 mg/kg/d), and low-dose group (0.012 mg/kg/d). Dosage regimen: oral administration, twice daily. human tumor model and cell-inoculated mouse model: po×14 bid; mouse tumor-inoculated model: po×10 bid. Control Trial: negative control group: given with the same volume of 5% CMC-Na as the test group, and the same dosage regimen as the test group. positive control group: Cyclophosphamide CTX 30 mg/kg, […] 5. Experiment Method and Key Steps 5.1 Anti-Tumor Test 5.1.1 Subcutaneous Inoculation Model
(§2) Tumor cells of vigorous growth stage were taken under sterile condition and made into cell suspensions of about 1-2×10^7/ml by homogenization, the suspensions were inoculated subcutaneously at 0.2 ml/mouse in host mice and repeated on the next day according to the experiment design, the animals in each group were slaughtered after about three weeks, the tumors were collected and weighed, and the tumor inhibition rates were calculated according to the following equation: tumor inhibition rate %=[(average tumor weight of control group-average tumor weight of treatment group)/average tumor weight of control group]×100%

[3] = system: human breast cancer Bcap-37 cells; assay: Human breast cancer Bcap-37 subcutaneous inoculation in nude mice; details: 100 mg/kg/d, ip × 2qod
From the text: as §1, with “group:” for “group: Cyclophosphamide CTX 30 mg/kg,”
as §2
The same operation was repeated in human tumor xenograft model, except that the feed, packing, cage and contact instruments were all sterilized under high pressure before use and the nude mice were fed in a laminar flow rack. The tumors and tumor-bearing animal weight gains were dynamically measured (tumor size measured using caliper: long diameter/a, short diameter/b, and tumor bulk=a×b^2/2).

mouse melanoma B16 cells = assay: Mouse melanoma B16 tail vein inoculation, lung metastasis; details: 100 mg/kg/d, ip × 2qod
From the text: (§3) human breast cancer Bcap-37 model, human lung cancer A549 model, human intestinal cancer LOVO model, human stomach cancer MGC model and human liver cancer QGY model, with tumor cell lines being of the second generation or more, mouse B16 melanoma cell line, mouse Lewis lung cancer model, mouse sarcoma s180 model, all passaged and preserved in Pharmacological Division of Shanghai Institute of Pharmaceutical Industry. 3. Experiment Animals Origins: nude mice, 6-week old, 18-22 g/mouse, provided by Laboratory Animal Center of Chinese Academy of Sciences, Shanghai Branch, with certification No. 2001A032. C57BL/6 mice and Kunming mice, 18-22 g/mouse, provided by Laboratory Animal Center of Chinese Academy of Sciences, Shanghai Branch, with certification SYXK (Shanghai) 2004-0015. Gender: male or female, the same gender for each batch in experiment Animal numbers: 10 mice and 10 nude mice for each of positive control group and test group in experiment, and 20 for negative control group. 4. Experiment Design Dose Settings: doses for 20(R)-ginsenoside Rg3 octo-acetate, 20(R)-ginsenoside Rg3 octo-n-butyrate and 20(R)-ginsenoside Rg3 octo-n-propionate were set as high-dose group (0.3 mg/kg/d), medium-dose group (0.06 mg/kg/d), and low-dose group (0.012 mg/kg/d). Dosage regimen: oral administration, twice daily. human tumor model and cell-inoculated mouse model: po×14 bid; mouse tumor-inoculated model: po×10 bid. Control Trial: negative control group: given with the same volume of 5% CMC-Na as the test group, and the same dosage regimen as the test group. positive control group: Cyclophosphamide CTX 30 mg/kg, MMC 2 mg/kg and 5Fu 30 mg/kg by intraperitoneal or intravenous administration, once daily, for seven consecutive days. 5. Experiment Method and Key Steps 5.1 Anti-Tumor Test 5.1.1 Subcutaneous Inoculation Model

mouse sarcoma S180 cells = assay: Mouse sarcoma S180 metastasis model; details: 100 mg/kg/d, ip × 2qod
From the text: as §3

mouse Lewis lung cancer [4] = assay: Mouse Lewis lung cancer (subcutaneous inoculation) metastasis model; details: 100 mg/kg/d, ip × 2qod
From the text: as §3, §2

[5] = system: human stomach cancer MGC cells; assay: Human stomach cancer MGC in-situ inoculation, survival; details: 100 mg/kg/d, ip × 2qod
From the text: as §3

[6] = system: human intestinal cancer LOVO cells; details: 100 mg/kg/d, ip × 2qod
From the text: as §1
LOVO intestinal cancer cells (cultured in vitro) of logarithmic growth stage were taken under sterile condition and prepared into cell suspensions of about 1.8×10^7/ml using RPMI1640 culture medium as diluent. The nude mice were subjected to general anesthesia and cut in belly after routine disinfection to belly skin, the spleens were taken out and inoculated with LOVO intestinal cancer cell suspensions (0.05 ml/mouse) and then restored, the incisions were sutured, and the mice were placed in the cages and then put in the laminar flow rack.

[7] = system: human liver cancer QGY cells; assay: Human liver cancer QGY liver in-situ inoculation, survival; details: 100 mg/kg/d, ip × 2qod
From the text: as §3
Under sterile condition, the in vivo passage of the second generation of QGY tumor source of vigorous growth stage was prepared into cell suspensions of about 1-2×10^7/ml by homogenization (1:6), and the homogenates were filtered using 100-mesh stainless steel screen, getting ready for use. The nude mice were disinfected routinely and anaesthetized and cut at the xiphoid in the middle of the abdominal cavity to expose the liver, the cell suspensions (0.05 ml) were injected into liver parenchyma using imported 28 ga ½ ml syringes, the abdominal cavity was closed and then sutured layer by layer. The nude mice were fed in the laminar flow rack, with all the feed, packing, cage and contact instruments being sterilized under high pressure before use.

[8] = system: human lung cancer A549 cells; assay: Human lung cancer A549 (subcutaneous inoculation) metastasis model; details: 100 mg/kg/d, ip × 2qod
[9] = Solubility of the isolated products; type: physicochemical

## CC(C)=CCC[C@@](C)(O)[C@H]1CC[C@]2(C)[C@@H]1[C@H](O)C[C@@H]1[C@@]3(C)CC[C@H](O[C@@H]4O[C@H](CO)[C@@H](O)[C@H](O)[C@H]4O[C@@H]4O[C@H](CO)[C@@H](O)[C@H](O)[C@H]4O)C(C)(C)[C@@H]3CC[C@]12C [20 (R)-ginsenoside Rg3, 20 (R)-Ginsenoside Rg3]
[1]; petroleum ether, chloroform and other low polarity or non-polar solvent
  Solubility in low polarity or non-polar solvent: not soluble
[1]; pyridine, ethanol solution (50%˜70%), strong acid aqueous solutions (pH<2), strong alkaline solutions (pH>10)
  Solubility in pyridine, ethanol solution, strong acid and strong alkaline solutions: easily soluble
[1]; water and other high polarity solvents
  Solubility in water and other high polarity solvents: not soluble

## O=P1(N(CCCl)CCCl)NCCCO1 (centres unmarked) [CTX, cyclophosphamide, reference compound]
Mouse Lewis lung cancer [2]
  Animal body weight (g) Start: 20.2 g
  Animal body weight (g) end: 21.9 g
  Tumor inhibition rate %: 93.92%
  Tumor-bearing toe weight (g) X ± SD: 0.0541 ± 0.02 g
[3]
  Animal body weight (g) Start: 20.4 g
  Animal body weight (g) end: 22.0 g
  Tumor inhibition rate %: 89.90%
  Tumor weight (g) X ± SD: 0.130 ± 0.06 g
Mouse melanoma B16 cells
  Animal body weight (g) Start: 20.1 g
  Animal body weight (g) end: 21.4 g
  Anti-metastasis rate %: 95.30%
  Lung clone numbers (mice) X ± SD: 2.26 ± 2.8
Mouse sarcoma S180 cells
  Animal body weight (g) Start: 20.2 g
  Animal body weight (g) end: 21.0 g
  Anti-metastasis rate %: 93.84%
  Lung clone numbers (mice) X ± SD: 0.18 ± 2.1
Mouse Lewis lung cancer [4]
  Animal body weight (g) Start: 19.4 g
  Animal body weight (g) end: 21.0 g
  Anti-metastasis rate %: 82.12%
  Lung clone numbers (mice) X ± SD: 0.50 ± 0.09
[5]
  Animal body weight (g) Start: 19.5 g
  Animal body weight (g) end: 21.1 g
  Average survival (d) X ± SD: 41.22 ± 3.5 days
  Life extension rate T/C × %: 181.01%
[6]
  Animal body weight (g) Start: 19.5 g
  Animal body weight (g) end: 21.1 g
  Average survival (d) X ± SD: 29.36 ± 3.3 days
  Life extension rate T/C × %: 214.91%
[7]
  Animal body weight (g) Start: 19.1 g
  Animal body weight (g) end: 21.0 g
  Average survival (d) X ± SD: 37.23 ± 3.4 days
  Life extension rate T/C × %: 159.44%
[8]
  Animal body weight (g) Start: 19.6 g
  Animal body weight (g) end: 21.3 g
  Anti-metastasis rate %: 85.10%
  Lung clone numbers (mice) X ± SD: 0.29 ± 0.12

## CCCCCC(=O)OC[C@H]1O[C@@H](OC2CC[C@]3(C)C(CC[C@@]4(C)C3C[C@H](OC(=O)CCCCC)C3C([C@@](C)(O)CCC=C(C)C)CC[C@@]34C)C2(C)C)[C@H](OC2O[C@H](COC(=O)CCCCC)[C@@H](OC(=O)CCCCC)[C@H](OC(=O)CCCCC)[C@H]2OC(=O)CCCCC)[C@@H](OC(=O)CCCCC)[C@@H]1OC(=O)CCCCC (stereo partly drawn) [20(R)-Ginsenoside Rg3 octo-n-hexanoate]
[9]; ethanol
  Solubility in ethanol: soluble
[9]; water
  Solubility in water: soluble
